This note sets out measurements from patent US4568646A, “Preparation of antibiotic LL-D05139β from cultures of Glycomyces harbinensis, gen. nov., sp. nov” (American Cyanamid Company, priority 1985, dated 1986).

For data set [1], the system named is human colon carcinoma (CX-1). Briefly: Human tumor clonogenic (stem cell) assay, colon carcinoma. The class given is cell-based. On the procedure:
(§1) This test was performed essentially by the method of A. Hamburger and S. Salmon, Primary bioassay of human tumor stem cells., Science, 197: 461-463 (1977). Human colon carcinoma (CX-1) and human lung carcinoma (LX-1) tumors were obtained from the National Cancer Institute and propagated in athymic Balb/c mice. Freshly removed tumors were dispersed with trypsin 0.25% and 5×10^4 lung carcinoma cells or 1×10^5 colon carcinoma cells in soft (0.3%) agarose medium containing 0.1 ml of test drug were plated onto a solidified (0.5%) agarose base medium in 35 mm grided dishes. Cultures were incubated at 37° C. in a humidified 5% carbon dioxide in air atmosphere. Colonies were counted after 10-11 days. A compound is considered active if the treated/control (T/C) value is ≤30%, representing a 70% cell kill.

Data set [2] can be described thus: Stability in solution as a function of pH. The class given is physicochemical.
Data set [3] relates to human lung carcinoma (LX-1). Briefly: Human tumor clonogenic (stem cell) assay, lung carcinoma. The class given is cell-based. The note with it: for T/C (treated/control colonies): Lung Carcinoma. On the procedure:
as §1

SMILES strings stand for the structures.

Take `C[C@H](N)C(=O)N[C@@H](COC(=O)C=[N+]=[N-])C(=O)O` [LL-D05139β, N-L-alanyl-L-serine diazoacetate]: the “T/C (treated/control colonies)” value in data set [1] (Colon Carcinoma, concentration 2 mgc/ml) was determined as 16.0%; in data set [3] (concentration 2 mgc/ml) it was 23.2%; in data set [3] (concentration 20 mgc/ml), 17.8%; in data set [3] (concentration 200 mgc/ml) it was 13.0%. For the same molecule, the “Activity in human tumor clonogenic assay (active if T/C ≤30%)” value in data set [1] (colon (CX-1) carcinoma, at 2.0 mcg/ml and higher doses) is recorded as “active”; in data set [3] (human lung (LX-1) carcinoma, at 2.0 mcg/ml and higher doses), “active”. Further, the Stability in solution result in data set [2] (below pH 5.0) is recorded as “Decomposes rapidly”; in data set [2] (weakly basic solutions) it was “stable”.
